Structures can show the parent of a compound that is named as a salt.
Legend:
Wistar-strain male rats = assay: Hypoglycemic effect (blood glucose level in fasted, glucose-loaded rats); type: in vivo; conditions: 100 mg/kg oral, 2 hours later; for Blood Glucose Level: fasted rats with s.c. 20% glucose 0.5 ml/100 g, control 139 ± 3; for inhibition in vivo at 100 mg/kg: Rattus norvegicus, decrease vs control (139 ± 3 mg/dl)
Experimental: Groups of 7 Wistar-strain male rats (weighing about 200 g) which were fasted for 20 hours were used for measurement of the hypoglycemic effect according to the modified method by Dulin et al. [Dulin, W. L. et al., Proc. Soc. Expl. Med., 107, 245 (1961)]. That is, 0.5 ml/100 g of 20% aqueous solution of glucose was subcutaneously administered to the backs of rats to prevent a decrease in blood glucose level because of the fasting. […] The obtained blood sample was allowed to stand for 30 minutes to complete the coagulation and was centrifuged to obtain the serum. Blood sugar level was measured according to the mutalotase GOD method [Trinder, Ann. Clin. Biochem., 6, 24 (1979)].

[1] = Acute toxicity test (oral, lethal dose by deaths over 7 days); conditions: mouse, in vivo, suspended in 0.5% aqueous C.M.C., fasted 20 hours, deaths for 7 days
Experimental: The test compounds of the present invention suspended in 0.5% aqueous solution of carboxymethylcellulose (C.M.C.) were orally administered to groups of 4 to 6 ddY-strain male mice (weighing about 19 g) which had fasten for 20 hours. The lethal dose was determined by the number of deaths for 7 days thereafter.

Question: Which “Blood Glucose Level” value (Wistar-strain male rats) does the source give for CCCCCCCCOC(=O)C(=O)NC(=O)NC [compound 22, 5-methyloxaluric acid octyl ester] here?
Answer: 122 ± 2 mg/dL

Question: What about the inhibition in vivo at 100 mg/kg (Wistar-strain male rats) of the same compound?
Answer: 12.2%

Question: For CCCCNC(=O)NS(=O)(=O)c1ccc(C)cc1 [Tolubutamide, reference compound], which “Blood Glucose Level” value (Wistar-strain male rats) is on record?
Answer: 50 ± 1 mg/dL

Question: What about the inhibition in vivo at 100 mg/kg (Wistar-strain male rats) of the same compound?
Answer: 64%

Question: Which results are given for CCNC(=O)NC(=O)C(=O)O [compound 2, 5-ethyloxaluric acid ammonium salt]?
Answer: Blood Glucose Level (Wistar-strain male rats): 102 ± 4 mg/dL; inhibition in vivo at 100 mg/kg (Wistar-strain male rats): 26.6%; LD50 at 168 h [1]: 3000 to 4000 mg/kg

Question: With CCCCNC(=O)NC(=O)C(=O)O [compound 3, 5-butyloxaluric acid] as the compound, how does the “Blood Glucose Level” value (Wistar-strain male rats) read?
Answer: 103 ± 5 mg/dL

Question: And the inhibition in vivo at 100 mg/kg (Wistar-strain male rats)?
Answer: 26%

Question: Which “Blood Glucose Level” value (Wistar-strain male rats) does the source give for CCOC(=O)C(=O)NC(=O)NCC(C)C [compound 14, 5-iso-butyloxaluric acid ethyl ester] here?
Answer: 93 ± 2 mg/dL

Question: What about the inhibition in vivo at 100 mg/kg (Wistar-strain male rats) of the same compound?
Answer: 33.1%

Question: Which results are given for CCCCOC(=O)C(=O)NC(=O)NC [compound 20, 5-methyloxaluric acid butyl ester]?
Answer: Blood Glucose Level (Wistar-strain male rats): 101 ± 6 mg/dL; inhibition in vivo at 100 mg/kg (Wistar-strain male rats): 27.3%; LD50 at 168 h [1]: > 4000 mg/kg

Question: With CCCCNC(=O)NC(=O)C(=O)OC [compound 13, 5-butyloxaluric acid methyl ester] as the compound, how does the “Blood Glucose Level” value (Wistar-strain male rats) read?
Answer: 88 ± 3 mg/dL

Question: What about the inhibition in vivo at 100 mg/kg (Wistar-strain male rats) of the same compound?
Answer: 36.7%

Question: And the LD50 at 168 h [1]?
Answer: 1000 to 2000 mg/kg

Question: Which “Blood Glucose Level” value (Wistar-strain male rats) does the source give for CCOC(=O)C(=O)NC(=O)NC [compound 12, 5-methyloxaluric acid ethyl ester] here?
Answer: 81 ± 5 mg/dL

Question: And the inhibition in vivo at 100 mg/kg (Wistar-strain male rats)?
Answer: 41.7%

Question: For CNC(=O)NC(=O)C(=O)OCC(C)C [compound 21, 5-methyloxaluric acid iso-butyl ester], which “Blood Glucose Level” value (Wistar-strain male rats) is on record?
Answer: 115 ± 4 mg/dL

Question: And the inhibition in vivo at 100 mg/kg (Wistar-strain male rats)?
Answer: 17.3%

Question: Which “Blood Glucose Level” value (Wistar-strain male rats) does the source give for CNC(=O)NC(=O)C(=O)O [compound 1, 5-methyloxaluric acid ammonium salt] here?
Answer: 104 ± 7 mg/dL

Question: What about the inhibition in vivo at 100 mg/kg (Wistar-strain male rats) of the same compound?
Answer: 25.2%

— patent publication US4708954A, “Hypogylcemic oxaluric acid derivatives” (Nippon Zoki Pharmaceutical Co., Ltd., priority 1985, dated 1987)
